Reference: PMC11207953, “Phytochemical Investigation of Polyphenols from the Aerial Parts of Tanacetum balsamita Used in Transylvanian Ethnobotany and Parallel Artificial Membrane Permeability Assay” (Plants, 2024)

Tests used:
[1] = parameters: method as in PMID 29182998; details: isolated from Tanacetum parthenium; cited from earlier work
[2] = Parallel artificial membrane permeability assay for the gastrointestinal tract (PAMPA-GI), coupled with UHPLC-DAD; format: in vitro ADME; details: constituent measured within T. balsamita 50% (v/v) ethanolic extract (TbE), donor pH 6.8, acceptor pH 7.4, 37 °C, Pe in cm/s, n = 9, read-out: logPe PAMPA-GI (n = 9) (converted)
Text: (§1) The ability of the compounds in T. balsamita extract (TbE and TbW) to cross biological membranes of the gastrointestinal (GI) tract and the blood–brain barrier (BBB) by passive diffusion was investigated using the PAMPA model. The coupling of this assay with UHPLC separation allowed the rapid simultaneous investigation of the membrane permeability of the compounds present in the extract (Figure 3). […] Due to the artificial nature of the membrane used in the assay, only passive transport mechanisms can occur, unlike in cell-based assays. This is particularly important in the case of plant extracts due to their complexity, as the evaluation of results obtained by different co-existing mechanisms (e.g., active transport, or metabolism) can be challenging. Furthermore, no significant differences in effective permeabilities are observed in the PAMPA, whether assessed with single compounds or mixtures. […]
(§2) After incubation, sandwich plates were separated, and the concentrations of each compound in the starting donor solution and in the acceptor and donor wells were determined in triplicate by chromatographic peak areas derived from the UHPLC-DAD method described above. UV spectra and chromatograms were recorded at 200–400 nm, and the chromatograms acquired at the UV absorption maxima of each compound were used for data evaluation. […]

[3] = Parallel artificial membrane permeability assay for the blood–brain barrier (PAMPA-BBB), coupled with UHPLC-DAD; format: in vitro ADME; details: constituent measured within T. balsamita 50% (v/v) ethanolic extract (TbE), donor pH 7.4, acceptor pH 7.4, 37 °C, Pe in cm/s, n = 9, read-out: logPe PAMPA-BBB (n = 9) (converted)
Text: as §1, §2

| Compound | permeability in the PAMPA-BBB model (in words) [1] | Papp at 4 h [2] [×10⁻⁶ cm/s] | Papp at 4 h [3] [×10⁻⁶ cm/s] |
| --- | --- | --- | --- |
| COc1ccc(-c2cc(=O)c3c(O)c(OC)c(O)c(OC)c3o2)cc1 [nevadensin] | good permeability |  |  |
| COc1ccc(-c2oc3cc(OC)c(OC)c(O)c3c(=O)c2OC)cc1O [casticin] | good permeability |  |  |
| O=c1cc(-c2ccc(O)cc2)oc2cc(O)cc(O)c12 [Compound 86, apigenin] | good permeability | 17.8 | 34.7 |
| COc1c(O)cc2oc(-c3ccc(O)c(O)c3)c(OC)c(=O)c2c1O [axillarin] | good permeability |  |  |
| COc1cc(-c2cc(=O)c3c(O)c(OC)c(O)c(OC)c3o2)ccc1O [sudachitin] | good permeability |  |  |
